Measured values published in PubChem BioAssay AID1963844 (Molecular Pharmacology Branch, DTP, NCI, 2024).
pIC50: −log10 of the molar value.

System: 422866-222-R5-J1-PDC complex spheroid viability
Assay: Anticancer human tumor 422866-222-R5-J1-PDC patient-derived pancreatic adenocarcinoma cell line growth inhibition [POLQ]
Conditions: for pIC50: curve of first compound; for viability, T/C: stronger effect = lower value
Procedure, shortened: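 Patient-derived tumour cells were co-cultured with HUVEC and mesenchymal stem cells as multicellular spheroids at 37 °C. They were treated with POLQ inhibitors (novobiocin, ART-558, RP6685) alone or combined with other agents. Top concentrations were at or near clinical Cmax (otherwise 10 microM; SN-38 at 1 microM), decreasing in half-log steps.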

[1] = second compound 0.0316 µM, first compound 0.0316 µM
[2] = second compound 0.0316 µM, first compound 0.1 µM
[3] = second compound 0.0316 µM, first compound 0.316 µM
[4] = second compound 0.0316 µM, first compound 1 µM
[5] = second compound 0.0316 µM, first compound 3.16 µM
[6] = second compound 0.0316 µM, first compound 10 µM
[7] = second compound 0.1 µM, first compound 0.0316 µM
[8] = second compound 0.1 µM, first compound 0.1 µM
[9] = second compound 0.1 µM, first compound 0.316 µM
[10] = second compound 0.1 µM, first compound 1 µM
[11] = second compound 0.1 µM, first compound 3.16 µM
[12] = second compound 0.1 µM, first compound 10 µM
[13] = second compound 0.316 µM, first compound 0.0316 µM
[14] = second compound 0.316 µM, first compound 0.1 µM
[15] = second compound 0.316 µM, first compound 0.316 µM
[16] = second compound 0.316 µM, first compound 1 µM
[17] = second compound 0.316 µM, first compound 3.16 µM
[18] = second compound 0.316 µM, first compound 10 µM
[19] = second compound 1 µM, first compound 0.0316 µM
[20] = second compound 1 µM, first compound 0.1 µM
[21] = second compound 1 µM, first compound 0.316 µM
[22] = second compound 1 µM, first compound 1 µM
[23] = second compound 1 µM, first compound 3.16 µM
[24] = second compound 1 µM, first compound 10 µM
[25] = second compound 3.16 µM, first compound 0.0316 µM
[26] = second compound 3.16 µM, first compound 0.1 µM
[27] = second compound 3.16 µM, first compound 0.316 µM
[28] = second compound 3.16 µM, first compound 1 µM
[29] = second compound 3.16 µM, first compound 3.16 µM
[30] = second compound 3.16 µM, first compound 10 µM
[31] = second compound 10 µM, first compound 0.0316 µM
[32] = second compound 10 µM, first compound 0.1 µM
[33] = second compound 10 µM, first compound 0.316 µM
[34] = second compound 10 µM, first compound 1 µM
[35] = second compound 10 µM, first compound 3.16 µM
[36] = second compound 10 µM, first compound 10 µM
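Further: spheroids exposed to compounds for one week before readout.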
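Wherever viability, T/C is given: percent of DMSO vehicle wells luminescence so 100% = untreated viability.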

## COc1ccc([C@@H](O)c2cc(-c3ncnc4cc(N5CCOCC5)ccc34)c(F)cc2Cl)nn1 + Nc1ccc(C#CCN(C(=O)Cc2ncc(C(F)(F)F)cc2C(F)(F)F)c2ccc(F)cc2)nn1
Second compound 0.0316 µM
  pIC50: 5.82
Second compound 0.1 µM
  pIC50: 5.59
Second compound 0.316 µM
  pIC50: 5.56
Second compound 1 µM
  pIC50: 5.71
Second compound 3.16 µM
  pIC50: 5.89
Second compound 10 µM
  pIC50: 5.80
[1]
  viability, T/C: 81.2%
[2]
  viability, T/C: 89.7%
[3]
  viability, T/C: 70.9%
[4]
  viability, T/C: 55.3%
[5]
  viability, T/C: 42.4%
[6]
  viability, T/C: 34.8%
[7]
  viability, T/C: 104%
[8]
  viability, T/C: 81.8%
[9]
  viability, T/C: 75.1%
[10]
  viability, T/C: 59.8%
[11]
  viability, T/C: 46.2%
[12]
  viability, T/C: 39.2%
[13]
  viability, T/C: 110%
[14]
  viability, T/C: 88.5%
[15]
  viability, T/C: 73.1%
[16]
  viability, T/C: 70.6%
[17]
  viability, T/C: 46.2%
[18]
  viability, T/C: 33.1%
[19]
  viability, T/C: 94.2%
[20]
  viability, T/C: 87.4%
[21]
  viability, T/C: 79.8%
[22]
  viability, T/C: 62.6%
[23]
  viability, T/C: 40.2%
[24]
  viability, T/C: 29.4%
[25]
  viability, T/C: 95.9%
[26]
  viability, T/C: 89.9%
[27]
  viability, T/C: 72.9%
[28]
  viability, T/C: 49.1%
[29]
  viability, T/C: 47.6%
[30]
  viability, T/C: 34.6%
[31]
  viability, T/C: 110%
[32]
  viability, T/C: 100%
[33]
  viability, T/C: 82.5%
[34]
  viability, T/C: 60.3%
[35]
  viability, T/C: 35.1%
[36]
  viability, T/C: 31.4%

## Nc1ccn(C2OC(CO)C(O)C2(F)F)c(=O)n1 (stereo unspecified) + Cc1cccc(N(C)C(=O)C2C(O)CCN2c2nc(C)cc(C(F)(F)F)c2C#N)c1
Second compound 0.0316 µM
  pIC50: 7.00
Second compound 0.1 µM
  pIC50: 7.12
Second compound 0.316 µM
  pIC50: 7.08
Second compound 1 µM
  pIC50: 6.92
Second compound 3.16 µM
  pIC50: 6.81
Second compound 10 µM
  pIC50: 6.92
[1]
  viability, T/C: 77.9%
[2]
  viability, T/C: 50.4%
[3]
  viability, T/C: 40.4%
[4]
  viability, T/C: 36.1%
[5]
  viability, T/C: 36.1%
[6]
  viability, T/C: 42.9%
[7]
  viability, T/C: 68.8%
[8]
  viability, T/C: 43.2%
[9]
  viability, T/C: 40.5%
[10]
  viability, T/C: 38.6%
[11]
  viability, T/C: 35.5%
[12]
  viability, T/C: 35.4%
[13]
  viability, T/C: 69%
[14]
  viability, T/C: 45.3%
[15]
  viability, T/C: 40.3%
[16]
  viability, T/C: 38.1%
[17]
  viability, T/C: 35%
[18]
  viability, T/C: 34.8%
[19]
  viability, T/C: 68.7%
[20]
  viability, T/C: 51.6%
[21]
  viability, T/C: 41.4%
[22]
  viability, T/C: 37.3%
[23]
  viability, T/C: 38.6%
[24]
  viability, T/C: 40.2%
[25]
  viability, T/C: 83.7%
[26]
  viability, T/C: 54.2%
[27]
  viability, T/C: 41.9%
[28]
  viability, T/C: 43.2%
[29]
  viability, T/C: 37.8%
[30]
  viability, T/C: 38%
[31]
  viability, T/C: 68%
[32]
  viability, T/C: 51.9%
[33]
  viability, T/C: 45.2%
[34]
  viability, T/C: 39.9%
[35]
  viability, T/C: 38.9%
[36]
  viability, T/C: 48.5%

## CNCc1ccc(-c2[nH]c3cc(F)cc4c3c2CCNC4=O)cc1 + COC1C(OC(N)=O)C(O)C(Oc2ccc3c(O)c(NC(=O)c4ccc(O)c(CC=C(C)C)c4)c(=O)oc3c2C)OC1(C)C
Second compound 0.0316 µM
  pIC50: < 5.00
Second compound 0.1 µM
  pIC50: < 5.00
Second compound 0.316 µM
  pIC50: < 5.00
Second compound 1 µM
  pIC50: < 5.00
Second compound 3.16 µM
  pIC50: < 5.00
Second compound 10 µM
  pIC50: < 5.00
[1]
  viability, T/C: 96.6%
[2]
  viability, T/C: 97.2%
[3]
  viability, T/C: 75.3%
[4]
  viability, T/C: 97.3%
[5]
  viability, T/C: 83.4%
[6]
  viability, T/C: 105%
[7]
  viability, T/C: 124%
[8]
  viability, T/C: 109%
[9]
  viability, T/C: 104%
[10]
  viability, T/C: 99.1%
[11]
  viability, T/C: 76.7%
[12]
  viability, T/C: 95%
[13]
  viability, T/C: 99.5%
[14]
  viability, T/C: 101%
[15]
  viability, T/C: 98.2%
[16]
  viability, T/C: 83%
[17]
  viability, T/C: 92%
[18]
  viability, T/C: 95.1%
[19]
  viability, T/C: 116%
[20]
  viability, T/C: 104%
[21]
  viability, T/C: 101%
[22]
  viability, T/C: 92.9%
[23]
  viability, T/C: 96.8%
[24]
  viability, T/C: 99%
[25]
  viability, T/C: 93%
[26]
  viability, T/C: 101%
[27]
  viability, T/C: 92.9%
[28]
  viability, T/C: 71.7%
[29]
  viability, T/C: 83.5%
[30]
  viability, T/C: 99%
[31]
  viability, T/C: 96.8%
[32]
  viability, T/C: 102%
[33]
  viability, T/C: 100%
[34]
  viability, T/C: 90%
[35]
  viability, T/C: 103%
[36]
  viability, T/C: 90.2%
